According to patent publication US20220308068A1, “BIOMARKER IN OSTEOPOROSIS INTERVENTION THERAPY BY BONE PEPTIDE, SCREENING METHOD AND USE THEREOF” (Institute of Food Science and Technology, Chinese Academy …, priority 2019, published 2022):

Test system: ovariectomized osteoporosis rat model
Experiment: H&E staining of right tibias
Format: in vivo, SD rats
Conditions: right tibia, 12 weeks of intervention treatment
Description: 1, the construction of ovariectomized rats models: SD rats are kept in a clean environment under a controlled room temperature at 25±2° C. and alternates 12/12 light and dark every day, and the SD rats feed freely. After one week adaptive feeding, randomly select 8 female rats, anesthetize them with 1% (v/v) pentobarbital sodium (40 mg/kg BW), and remove a little fat near ovaries. The remaining 40 rats are ovariectomized after being anesthetized with pentobarbital sodium. The recovery situation is observed in a 4-week recovery period, and their weight changes are detected. These are prepared by the applicant in advance. (any research about metabolic fingerprint changes of ovariectomized osteoporotic rats after intervention with bone peptide have not been reported according to the existing literature). 2, animal grouping and samples collection: the 8 female rats with a little fat near ovaries removed are selected as a sham-operated group, the ovariectomized 40 rats are randomly divided into 5 groups with 8 rats in each group, and are named by a negative control group, a positive control group, a low-concentration treatment group, a medium-concentration treatment group and a high-concentration treatment group. The rats are perfused by different solutions of bovine bone peptide (diluted by ultrapure water, and sterilized) with concentration of 100 mg/kg, 200 mg/kg, and 500 mg/kg according to the weights of the rats. The rats in the negative control group are perfused with equal volume of ultrapure sterile water (a perfusing volume is generally 1-2 mL/100 g BW), and the rats in the positive control group are perfused with 50 μg/kg of 17β-estradiol (ES). Observe weight changes of the rats and measure the weights every two weeks. After perfusing experiment, the rats are sacrificed in accordance with the animal welfare operating procedures, femurs and tibias on both sides are taken, and soft tissues such as muscle and fascia attached to bone tissues are removed. The right tibias are subjected to paraffin-embedded H&E staining treatment after fixing in a phosphate-formalin buffer for 24 hours for morphometric analysis of the tibias of the rats. Left femurs and right femurs is soaked with normal saline, washed repeatedly for 3 times, wrapped with medical gauzes (pre-soaked with normal saline) and tinfoil, and then stored in a −20° C. refrigerator for trabecular bone microstructure (micro-CT scanning) and mechanical strength tests of bone biomechanical indexes (three-point bending test). […]

C[C@]12CC[C@@H]3c4ccc(O)cc4CC[C@H]3[C@@H]1CC[C@@H]2O [ES, 17β-estradiol]
trabecular bone area: significantly increased | trabecular bone connection: tighter | trabecular bone spacing: smaller | trabecular bone width: wider
